Data on two molecules can be found in patent publication US20240091248A1, “METHODS OF TREATING ACUTE MYELOID LEUKEMIA AND MANAGING CYTOPENIA” (GENENTECH, INC., priority 2021, published 2024).

Usually Ki stands for a dissociation constant, usually derived from enzyme kinetics or from competition with a known ligand.

In experiment [1] the test system is patients with acute myeloid leukemia (AML). The experiment is described as follows: venetoclax exposure versus overall survival in CR/CRh patients with post-remission cytopenia. The format is in vivo, human. The conditions noted are these: switched to 21-day dosing or remained on 28-day dosing, Cox proportional-hazards models.
In experiment [2] the target is Mcl-1 (Homo sapiens, UniProt Q07820). The conditions noted are these: cited from earlier work.
In experiment [3] the test system is patients with acute myeloid leukemia (AML). The experiment is described as follows: measurable residual disease (MRD) response analysis of the phase 3 study. The format is in vivo, human. The conditions noted are these: p<0.001. As to the method:
Methods: Enrolled patients were ≥18 years and unfit for intensive chemotherapy. Patients received Ven 400 mg orally; days 1-28 and Aza 75 mg/m^2; days 1-7/28-day cycle. Bone marrow aspirate samples for multiparametric flow cytometry assessments by integrated leukemia-associated immunophenotypes and different than normal procedures were collected for central analysis (Covance Central Laboratory Services) at baseline, end of cycle 1, and every 3 cycles thereafter. Assessments were performed independent of disease responses. MRD response was defined as <1 residual blast/1000 leukocytes (<10^−3). CRc, DoR, OS, and EFS were assessed. Disease assessments were per modified International Working Group response criteria for AML.

Sequence of Mcl-1 (Q07820 whole entry): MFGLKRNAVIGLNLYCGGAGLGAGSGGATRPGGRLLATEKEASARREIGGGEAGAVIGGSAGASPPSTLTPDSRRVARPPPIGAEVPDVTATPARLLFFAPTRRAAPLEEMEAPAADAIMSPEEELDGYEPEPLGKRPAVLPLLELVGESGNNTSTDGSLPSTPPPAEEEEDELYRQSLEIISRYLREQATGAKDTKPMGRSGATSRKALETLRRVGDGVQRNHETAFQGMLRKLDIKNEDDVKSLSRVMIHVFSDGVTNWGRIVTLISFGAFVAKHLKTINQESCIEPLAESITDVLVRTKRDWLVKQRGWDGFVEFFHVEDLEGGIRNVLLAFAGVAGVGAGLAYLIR

As to `CC1(C)CCC(CN2CCN(c3ccc(C(=O)NS(=O)(=O)c4ccc(NCC5CCOCC5)c([N+](=O)[O-])c4)c(Oc4cnc5[nH]ccc5c4)c3)CC2)=C(c2ccc(Cl)cc2)C1` [venetoclax, 4-(4-{[2-(4-chlorophenyl)-4,4-dimethylcyclohex-1-en-1-yl]methyl}piperazin-1-yl)-N-({3-nitro-4-[(tetrahydro-2H-pyran-4-ylmethyl)amino]phenyl}sulfonyl)-2-(1H-pyrrolo[2,3-b]pyridin5-yloxy)benzamide], the “relationship between venetoclax exposure (Cavg) and overall survival” value in experiment [1] is recorded as “no apparent relationship”. Further, the Ki in experiment [2] is more than 0.444 µM. Regarding `Nc1ncn([C@@H]2O[C@H](CO)[C@@H](O)[C@H]2O)c(=O)n1` [Aza, 4-amino-1-β-D-ribofuranosyl-s-triazin-2(1H)-one], the “rate of composite complete remission (CRc) and MRD response (MRD<10^−3)” value in experiment [3] was found to be 7.6%.
